Assay results reported in patent US6342504B1, “Aromatic heterocyclic derivatives as enzyme inhibitors” (priority 1994, dated 2002).
Structures can show the parent of a compound that is named as a salt. Where two headings read alike, the source gives them in different places.

Tests used:
[1] = system: pooled normal human plasma; experiment: Ex vivo anticoagulant effect: activated partial thromboplastin time (APTT) in plasma; type: biochemical
Experimental: FIG. 6 depicts the anticoagulant effect of [3-[(benzylsulfonyl)amino]-2-oxo-1,2-dihydropyridyl] acetyl-L-arginal measured in citrated human plasma, closed circles (l), using the activated partial thromboplastin time (APTT) assay. […] The data is the mean of two independent determinations.
The ex vivo anticoagulant effect of [3-[(benzylsulfonyl)amino]-2-oxo-1,2-dihydropyridyl]acetyl-L-argininal was determined by measuring the prolongation of the activated partial thromboplastin time (APTT) over a broad concentration range of the added inhibitor, using pooled normal human plasma. Fresh frozen citrated pooled normal human plasma was obtained from George King Biomedical, Overland Park, Kans. Measurements of APTT were made using the Coag-A-Mate RA4 automated coagulometer (General Diagnostics, Organon Technica, Oklahoma City, Okla.) using the Platelin® L reagent (Organon Technica, Durham, N.C.) as the initiator of clotting according to the manufacturer's instructions. The assay was conducted by making a series of dilutions of the test compounds in rapidly thawed plasma followed by adding 200 microliters to the wells of the assay carousel.

[2] = system: clot formation on silk thread in A-V shunt; experiment: Multiple extracorporeal (A-V) shunt model in rats utilizing oral dosing; type: in vivo; settings: rat, read-out: ED50 value (dose that reduced the clot size by 50%)
Experimental: The compounds of Example 10 and 143 were evaluated in a multichamber A-V shunt model in rats. The A-V shunt model is one of the most common and generally used systems to evaluate antithrombotic compounds: Smith, J. R. and White, A. M. Br. J. Pharmacol., 77: 29-38 (1982). In this model a localized clot made up of primarily fibrin with some platelet and macrophage involvement (Shand, R. A. and Smith, J. R. and Wallis, R. B. Thromb. Res., 36: 223-232 (1984)), is formed on an artificial thrombogenic surface (typically a segment of silk or cotton thread) contained in a sialstic chamber which is part of an exteriorized shunt between the carotid artery and jugular vein. The procedure described in this Example is a modified A-V shunt model that allows for oral dosing of test agents and subsequent evaluation of efficacy over a two to three hour window in time.
Briefly, male Harlan Sprague Dawley rats (420-450 g) were acclimated at least 72 hours prior to use. The animals were fasted for 12 hours prior to surgery with free access to water. Unanesthetized animals were grouped into three or four dosage groups (six or seven animals per group) and administered test agents orally via gavage needle, at doses of 1.0, 3.0, 10 and 50 mg/kg for the compound of Example 10, and 3.0, 10 and 30 mg/kg for the Compound of Example 143. Immediately after oral dosing, animals were anesthetized with sodium pentobarbital (Nembutal) given intraperitoneally at a dose of 50 mg/kg body weight, and placed on a isothermal pad to maintain body temperature. The level of anesthesia was monitored every 15 minutes by neuro-response to a tail pinch, respiration and core temperature. The desired depth of surgical anesthesia was maintained by administering subsequent doses (5 mg/kg) intravenously. The left femoral artery was catheterized using standard procedures for blood pressure monitoring and blood sampling, with polyethylene tubing (PE50). The left femoral vein was catheterized with PE50 tubing for delivery of anethestic.
The exteriorized shunts were assembled by connecting two pieces of saline filled 12.5 cm PE90 tubing with a 6 cm piece of PE160 tubing containing a 6 cm piece of silk suture size 3 and clamped with hemostats. A small 0.5 cm portion of the silk thread protrudes from the junction of the chamber with the shunt. The left jugular vein and right carotid artery were catheterized with the ends of the PE90 shunt. The shunt was unclamped and blood allowed to flow from the carotid artery, through the chamber, and exit the shunt via the jugular vein. After 15 minutes, both sides of the chamber were clamped and the suture containing the clot removed following detachment of the arterial end of the chamber. The clot was immediately weighed and recorded. This procedure takes place at predetermined intervals (60, 90, 120, and 150 minutes after oral dosing) to allow assessment of efficacy over a large window in time. Four shunts were placed with flow initiated at 45, 75, 105, and 135 minutes after oral compound administration. Clot weight from the four shunts was the primary endpoint of the protocol. Blood pressure, heart rate core temperature and respiration were monitored continuously. Following termination of the experiment the animals were euthanized with a 120 mg/kg dose of Nembutal. One experiment was performed per animal.
ED50 values were calculated at 60, 90, 120, and 150 minutes after oral dosing of test compound. ED50 is that dose that reduced the clot size by 50%. […]

Human rt-PA (Activase) = molecular target: T1, Human rt-PA (Activase) (Homo sapiens, UniProt P00750); experiment: biochemical; settings: 30 minute incubation; 1.0 nM enzyme; read-out: IC50 rt-PA (Table 2)
T1 construct: purchased Genentech Inc
Experimental: The ability of compounds of the present invention to act as a selective inhibitor of thrombin catalytic activity was assessed by determining the concentration of compound which inhibited the activity of this enzyme by 50%, (IC50), and comparing this value to that determined for all or some of the following related serine proteases: recombinant tissue plasminogen activator (rt-PA), plasmin, activated protein C, chymotrypsin, factor Xa and trypsin.
The buffer used for all assays was HBSA (10 mM HEPES, pH 7.5, 150 mM sodium chloride, 0.1% bovine serum albumin).
The assay for IC50 determinations was conducted by combining in appropriate wells of a Corning microtiter plate, 50 microliters of HBSA, 50 microliters of the test compound at a specified concentration (covering a broad concentration range) diluted in HBSA (or HBSA alone for VO (uninhibited velocity) measurement), and 50 microliters of the enzyme diluted in HBSA. Following a 30 minute incubation at ambient temperature, 50 microliters of the substrate at the concentrations specified below were added to the wells, yielding a final total volume of 200 microliters. The initial velocity of chromogenic substrate hydrolysis was measured by the change in absorbance at 405 nm using a Thermo Max® Kinetic Microplate Reader over a 5 minute period in which less than 5% of the added substrate was utilized. The concentration of added inhibitor which caused a 50% decrease in the initial rate of hydrolysis was defined as the IC50 value.
Recombinant Tissue Plasminogen Activator (rt-PA) Assay
rt-PA catalytic activity was determined using the substrate, Pefachrome t-PA (CH3SO2-D-hexahydrotyrosine-glycyl-L-arginine-p-nitroaniline, obtained from Pentapharm Ltd.). The substrate was made up in deionized water followed by dilution in HBSA prior to the assay in which the final concentration was 500 micromolar (about 3-times Km). Human rt-PA (Activase®) was obtained from Genentech Inc. The enzyme was reconstituted in deionized water and diluted into HBSA prior to the assay in which the final concentration was 1.0 nM.

T1 sequence (P00750 36-562): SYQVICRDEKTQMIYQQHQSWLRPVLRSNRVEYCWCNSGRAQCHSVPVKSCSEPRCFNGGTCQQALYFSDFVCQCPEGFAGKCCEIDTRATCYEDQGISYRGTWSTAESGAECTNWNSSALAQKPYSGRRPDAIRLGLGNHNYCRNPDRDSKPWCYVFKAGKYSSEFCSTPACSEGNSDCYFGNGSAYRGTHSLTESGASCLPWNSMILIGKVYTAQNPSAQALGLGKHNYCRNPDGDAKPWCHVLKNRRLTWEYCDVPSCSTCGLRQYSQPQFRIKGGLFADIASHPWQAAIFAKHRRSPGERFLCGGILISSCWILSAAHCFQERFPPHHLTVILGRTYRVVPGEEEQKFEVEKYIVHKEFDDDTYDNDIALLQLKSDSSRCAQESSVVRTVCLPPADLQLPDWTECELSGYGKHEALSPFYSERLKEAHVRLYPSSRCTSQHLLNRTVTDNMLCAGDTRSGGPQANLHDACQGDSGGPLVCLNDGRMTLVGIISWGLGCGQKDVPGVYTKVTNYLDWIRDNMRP

N=C(N)NCCC[C@@H](C=O)NC(=O)Cn1cccc(NS(=O)(=O)Cc2ccccc2)c1=O [Example 10, [3-[(benzylsulfonyl)amino]-2-oxo-1,2-dihydropyridyl]acetyl-L-argininal, trifluoroacetate salt]
concentration which caused a doubling of the control clotting time (APTT) ([1]; citrated human plasma, control clotting time 29 seconds, mean of two independent determinations): 7.7 µM
prolongation of the APTT ([1]; pooled normal human plasma, broad concentration range): prolonged the APTT in a dose dependent manner
ED50 ([2]; 1 h, 60 min after oral dose): < 1 mg/kg
ED50 ([2]; 1.5 h, 90 min after oral dose): 2.9 mg/kg
ED50 ([2]; 2 h, 120 min after oral dose): 2.9 mg/kg
ED50 ([2]; 150 min after oral dose): 8.2 mg/kg
IC50 (Human rt-PA (Activase)): > 2500 nM
